Patent publication US8664380B2, “Heterocyclic compound and use thereof” (Takeda Pharmaceutical Company Limited, priority 2008, dated 2014)
Structures can show the parent of a compound that is named as a salt.

Columns and labels:
[1] = target: T1, Human renin (Homo sapiens, UniProt P00797); experiment: Human renin inhibition; angiotensin I formed from angiotensinogen quantified by EIA; settings: for inhibition at 0.1 µM: read-out: Human renin inhibitory activity, inhibitory activity (%) at 0.1 μM
T1 sequence (P00797 67-406): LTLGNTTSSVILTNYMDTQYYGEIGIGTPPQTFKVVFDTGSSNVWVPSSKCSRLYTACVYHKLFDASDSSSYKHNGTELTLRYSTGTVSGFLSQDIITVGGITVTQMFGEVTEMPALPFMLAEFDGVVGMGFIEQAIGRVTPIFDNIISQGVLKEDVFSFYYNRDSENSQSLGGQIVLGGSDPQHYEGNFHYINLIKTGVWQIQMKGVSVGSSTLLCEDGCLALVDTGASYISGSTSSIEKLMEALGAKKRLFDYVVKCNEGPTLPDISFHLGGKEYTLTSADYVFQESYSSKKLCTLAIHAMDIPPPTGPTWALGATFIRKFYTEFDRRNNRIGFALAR
Method: As a substrate for renin activity measurement, the angiotensinogen mentioned in (5) above was used. 1 μl each of the test compound (containing 100% DMSO) was added to each well of a 384-well plate (ABgene). Renin was diluted with a buffer solution for reaction (20 mM sodium phosphate (pH 7.4)) to a concentration of 57 pM, and 14 μl each of the dilution was added to each well. The dilution was left to stand at 37° C. for 10 min, and then 5 μl of each of a 6 μM solution of substrate angiotensinogen was added to each well to initiate the reaction. […] The amount of angiotensin I produced by an enzyme reaction was quantified by Enzyme Immuno Assay (EIA) described below.
Anti-angiotensin I antibody (Peninsula Laboratories Inc.) diluted 5,000-fold with PBS was added to each well of a 384 well black plate (Nalge Nunc International Co., Ltd.) by 25 μl, and left standing overnight at 4° C. to immobilize the antibody in the plate. The antibody solution was removed, PBS solution (100 μl) containing 1% BSA was added to each well, and the mixture was left standing at room temperature for 2 hr for blocking. The blocking solution was removed, and each well was washed 5 times with 100 μl of 0.05% Tween20-PBS. […] Then, a biotinated angiotensin I solution (AnaSpec, 15 μl) prepared to 1.6 nM with a buffer [20 mM tris-hydrochloric acid (pH 7.4), 150 mM sodium chloride, 0.01% BSA, 0.05% Tween20] was added to each well, mixed with a plate mixer and left standing at room temperature for 1 hr. The solutions were removed from each well, and each well was washed 5 times with 100 μl of 0.05% Tween20-PBS. Horseradish peroxydase Streptavidin (PIERCE Biotechnology inc., 25 μl) diluted to 100 ng/ml with a buffer [20 mM tris-hydrochloric acid (pH 7.4), 150 mM sodium chloride, 0.1% BSA, 0.05% Tween 20] was added to each well and the mixture was left standing at room temperature for 30 min. The solutions were removed from each well, and each well was washed 5 times with 100 μl of 0.05% Tween20-PBS. SuperSignal ELISA femto Maximum Sensitivity Substrate (PIERCE Biotechnology Inc.) was added by 25 μl and luminescence intensity was measured by EnVision (Perkin Elmer Inc.). An analytical curve was drawn from the luminescence intensity of wells containing an angiotensin I standard solution, and the amount of angiotensin I produced by an enzyme reaction was calculated and used as an index of renin activity.

[2] = tested on: plasma renin activity; experiment: Ex vivo plasma renin activity (PRA) test after oral administration; format: in vivo, Macaca fascicularis; settings: Macaca fascicularis, po, 4 h, read-out: Macaca fascicularis plasma renin activity, PPA inhibitory activity (%, n = 3-7)
Method: Male macaca fascicularis was used. […] PRA was calculated by the following formula.

| SMILES | inhibition at 0.1 µM [1] [%] | inhibition at 1 mg/kg [2] [%] | Human renin inhibitory activity, inhibitory activity (%) at 0.1 μM ([1]; 0.1 μM test compound, human renin, substrate human angiotensinogen, 37° C. 30 min) [%] |
| --- | --- | --- | --- |
| COCCCCn1c(C(=O)N(CC(C)C)[C@@H]2CNC[C@H](C(=O)N3CCOCC3)C2)cc2ccccc21 [Example 3, 1-(4-methoxybutyl)-N-(2-methylpropyl)-N-[(3S,5R)-5-(morpholin-4-ylcarbonyl)piperidin-3-yl]-1H-indole-2-carboxamide hydrochloride] | 96 |  |  |
| COCCOCc1c(C(=O)N(CC(C)C)[C@@H]2CNC[C@H](C(=O)N3CCOCC3)C2)nc2ccccn12 [Example 4, 3-[(2-methoxyethoxy)methyl]-N-(2-methylpropyl)-N-[(3S,5R)-5-(morpholin-4-ylcarbonyl)piperidin-3-yl]imidazo[1,2-a]pyridine-2-carboxamide dihydrochloride] | 96 |  |  |
| COCCCCn1c(C(=O)N(CC(C)C)[C@@H]2CNC[C@H](C(=O)OCc3oc(=O)oc3C)C2)nc2ccccc21 [Example 7, (5-methyl-2-oxo-1,3-dioxol-4-yl)methyl (3R,5S)-5-[{[1-(4-methoxybutyl)-1H-benzimidazol-2-yl]carbonyl}(2-methylpropyl)amino]piperidine-3-carboxylate dihydrochloride] |  | 93 |  |
| COCCCCn1c(C(=O)N(CC(C)C)[C@@H]2CNC[C@H](C(=O)N3CCOCC3)C2)nc2ccccc21 [Example 10, 1-(4-methoxybutyl)-N-(2-methylpropyl)-N-[(3S,5R)-5-(morpholin-4-ylcarbonyl)piperidin-3-yl]-1H-benzimidazole-2-carboxamide dihydrochloride] |  | 72 | 97 |
| COCCCCn1c(C(=O)N(CC(C)C)[C@@H]2CNC[C@H](C(=O)N3CCOCC3)C2)nc2ccc(F)cc21 [Example 11, 6-fluoro-1-(4-methoxybutyl)-N-(2-methylpropyl)-N-[(3S,5R)-5-(morpholin-4-ylcarbonyl)piperidin-3-yl]-1H-benzimidazole-2-carboxamide dihydrochloride] |  | 89 |  |
| COCCCCn1c(C(=O)N(CC(C)C)[C@@H]2CNC[C@H](C(=O)N3CCOCC3)C2)nc2ccc(F)cc21 [Example 12, 6-fluoro-1-(4-methoxybutyl)-N-(2-methylpropyl)-N-[(3S,5R)-5-(morpholin-4-ylcarbonyl)piperidin-3-yl]-1H-benzimidazole-2-carboxamide dihydrochloride] | 97 |  |  |
| COCCCCn1c(C(=O)N(CC(C)C)[C@@H]2CNC[C@H](C(=O)N3CCCC3)C2)nc2cc(F)ccc21 [Example 18, 5-fluoro-1-(4-methoxybutyl)-N-(2-methylpropyl)-N-[(3S,5R)-5-(pyrrolidin-1-ylcarbonyl)piperidin-3-yl]-1H-benzimidazole-2-carboxamide dihydrochloride] |  | 89 |  |
| COCCCCn1c(C(=O)N(CC(C)C)[C@@H]2CNC[C@H](C(=O)N3CCCCC3)C2)nc2ccccc21 [Example 21, 1-(4-methoxybutyl)-N-(2-methylpropyl)-N-[(3S,5R)-5-(piperidin-1-ylcarbonyl)piperidin-3-yl]-1H-benzimidazole-2-carboxamide dihydrochloride] |  | 85 |  |
| COCCCCn1c(C(=O)N(CC(C)C)[C@@H]2CNC[C@H](C(N)=O)C2)nc2ccccc21 [Example 25, N-[(3S,5R)-5-carbamoylpiperidin-3-yl]-1-(4-methoxybutyl)-N-(2-methylpropyl)-1H-benzimidazole-2-carboxamide dihydrochloride] | 98 | 79 |  |
| COCCCCn1c(C(=O)N(CC(C)C)[C@@H]2CNC[C@H](C(=O)O)C2)nc2ccccc21 [Example 33, (3R,5S)-5-[{[1-(4-methoxybutyl)-1H-benzimidazol-2-yl]carbonyl}(2-methylpropyl)amino]piperidine-3-carboxylic acid dihydrochloride] |  | 77 |  |
| COCCCCn1c(C(=O)N(CC(C)C)[C@@H]2CNC[C@H](C(C)(C)O)C2)nc2ccccc21 [Example 38, N-[(3S,5R)-5-(1-hydroxy-1-methylethyl)piperidin-3-yl]-1-(4-methoxybutyl)-N-(2-methylpropyl)-1H-benzimidazole-2-carboxamide dihydrochloride] | 98 |  |  |
| COCCCCn1c(C(=O)N(CC(C)C)[C@@H]2CNC[C@H](C(C)O)C2)nc2ccccc21 (stereo partly drawn) [Example 42, N-[(3S,5R)-5-(1-hydroxyethyl)piperidin-3-yl]-1-(4-methoxybutyl)-N-(2-methylpropyl)-1H-benzimidazole-2-carboxamide dihydrochloride] |  | 70 |  |
| COCCCCn1c(C(=O)N(CC(C)C)[C@@H]2CNC[C@H](C(=O)N3CCOCC3)C2)nc2ccccc21 [Example 49, 1-(4-methoxybutyl)-N-(2-methylpropyl)-N-[(3S,5R)-5-(morpholin-4-ylcarbonyl)piperidin-3-yl]-1H-benzimidazole-2-carboxamide methanesulfonate] | 97 |  |  |
| COCCCCn1c(C(=O)N(CC(C)C)[C@@H]2CNC[C@H](C(=O)N3CCOCC3)C2)nc2ccc(OC)cc21 [Example 60, 6-methoxy-1-(4-methoxybutyl)-N-(2-methylpropyl)-N-{(3S,5R)-5-(morpholin-4-ylcarbonyl)piperidin-3-yl}-1H-benzimidazole-2-carboxamide dihydrochloride] |  | 85 |  |
| COCCCCn1c(C(=O)N(CC(C)C)[C@@H]2CNC[C@H](C(=O)N3CCCC3)C2)nc2ccc(OC)cc21 [Example 62, 6-methoxy-1-(4-methoxybutyl)-N-(2-methylpropyl)-N-{(3S,5R)-5-(pyrrolidin-1-ylcarbonyl)piperidin-3-yl}-1H-benzimidazole-2-carboxamide dihydrochloride] |  | 75 |  |
| CCC(O)[C@H]1CNC[C@@H](N(CC(C)C)C(=O)c2nc3ccccc3n2CCCCOC)C1 (stereo partly drawn) [Example 76, N-[(3S, 5R)-5-(1-hydroxypropyl)piperidin-3-yl]-1-(4-methoxybutyl)-N-(2-methylpropyl)-1H-benzimidazole-2-carboxamide dihydrochloride] |  | 79 |  |
| COCCCn1c(C(=O)N(CC(C)C)[C@@H]2CNC[C@H](C(=O)N3CCOCC3)C2)nc2ccccc21 [Example 85, 1-(3-methoxypropyl)-N-(2-methylpropyl)-N-[(3S, 5R)-5-(morpholin-4-ylcarbonyl)piperidin-3-yl]-1H-benzimidazole-2-carboxamide 1/2 sulfate] | 97 |  |  |
| CC(C)CN(C(=O)c1nc2ccccn2c1COc1ccccc1)[C@@H]1CNC[C@H](C(=O)N2CCOCC2)C1 [Example 117, N-(2-methylpropyl)-N-[(3S, 5R)-5-(morpholin-4-ylcarbonyl)piperidin-3-yl]-3-(phenoxymethyl)imidazo[1,2-a]pyridine-2-carboxamide dihydrochloride] | 98 |  |  |
| COCCCCn1c(C(=O)N(CC2CC2)[C@@H]2CNC[C@H](C(=O)N3CCOCC3)C2)nc2ccccc21 [Example 253, N-(cyclopropylmethyl)-1-(4-methoxybutyl)-N-[(3S,5R)-5-(morpholin-4-ylcarbonyl)piperidin-3-yl]-1H-benzimidazole-2-carboxamide dihydrochloride] |  | 77 |  |
| CCCN(C(=O)c1nc2ccccc2n1CCCCOC)[C@@H]1CNC[C@H](C(=O)N2CCOCC2)C1 [Example 255, 1-(4-methoxybutyl)-N-[(3S,5R)-5-(morpholin-4-ylcarbonyl)piperidin-3-yl]-N-propyl-1H-benzimidazole-2-carboxamide dihydrochloride] |  | 84 |  |
